Test results: patent US20210261524A1, “THERAPEUTIC COMPOUNDS AND COMPOSITIONS” (Exithera Pharmaceuticals, Inc., priority 2018, published 2021)

Test system: blood coagulation components
Details: dog, in vivo
Method: The following parameters and endpoints were evaluated in this study: mortality, body weight, physical, clinical pathology parameters (hematology and coagulation), […], and bioanalytical parameters.
The vehicle and test article were administered via intravenous (IV) infusion once on Day 1 for 135 minutes (initiated 30 minutes prior to starting the Cardiopulmonary Bypass (CPB) and continuing for 105 minutes of CPB). Group 2 animals received a […] IV bolus dose immediately prior to the start of IV infusion. Group 3, 4, and 5 animals received a 10 mg/kg IV bolus dose prior to the start of the IV infusion; with the CPB machine primed with test article at 10 μg/mL.
Infusion of the Compound 1 was started 30 minutes prior to the animal being placed on the CPB pump. The CPB pump was primed with 0.9% saline.
Venous and arterial sheaths were flushed with the Compound 1 at a concentration of 10 μg/mL. An IV bolus dose of the test article was administered immediately prior to the start of the infusion. Infusion of Compound 1 was started 30 minutes prior to the animal being placed on the CPB pump. The CPB […] was primed with 10 μg/mL of the Compound 1 prior to initiation of the CPB pump.
An IV bolus dose of the Compound 1 was administered immediately prior to the start of the infusion. […]

C[C@@H](NC(=O)N1C(=O)[C@H](Cc2ccnc(N)c2)[C@H]1C(=O)O)C1CCCCC1 [Compound 1, (2S,3R)-3-((2-aminopyridin-4-yl)methyl)-1-(((R)-1-cyclohexylethyl)carbamoyl)-4-oxoazetidine-2-carboxylic acid]
morbidity or mortality: not associated with any increases in morbidity or mortality | mortality (survival to study termination): All animals survived to study termination
